Measurements reported in patent US8481586B2, “Pyrrolo[2,3-a] carbazoles and use thereof as PIM kinase inhibitors” (Centre National de la Recherche Scientifique, priority 2008, dated 2013).

Tests used:
Assay in all cases: kinase panel residual activity test
Type in all cases: biochemical
Details in all cases: compound at 10 μM
[1] = target: HIPK3 (Homo sapiens (Human), UniProt Q9H422)
Source text: (§1) MKK1, ERK 1, ERK 2, JNK1, JNK2, JNK3, p38a MAPK, p38b MAPK, p38g MAPK, p38s MAPK, ERK8, RSK1, RSK2, PDK1, PKBa, PKBb, SGK1, S6K1, PKA, ROCK2, PRK2, PKCa, PKC zeta, PKD1, MSK1, MNK1, MNK2, MAPKAP-K2, MAPKAP-K3, PRAK, CAMKKa, CAMKKb, CAMK1, SmMLCK, PHK, CHK1, CHK2, GSK3b, CDK2/cyclin A, PLK1, PLK1 (Okadaic acid), Aurora B, Aurora C, AMPK, MARK3, BRSK2, MELK, CK1, CK2, NEK2a, NEK6, NEK7, IKKb, PIM-1, PIM-2, PIM-3, SRPK1, MST2, EF2K, HIPK2, HIPK3, PAK-4, PAK5, PAK6, Src, Lck, CSK.

[2] = target: MAPKAP-K3 (Homo sapiens (Human), UniProt Q16644)
Source text: as §1

[3] = target: MNK1 (Homo sapiens (Human), UniProt Q9BUB5)
Source text: as §1

[4] = target: Aurora B (Homo sapiens (Human), UniProt Q96GD4)
Source text: as §1

[5] = target: p38a MAPK (Homo sapiens (Human), UniProt Q16539)
Source text: as §1

[6] = target: Src (Homo sapiens (Human), UniProt P12931)
Source text: as §1

[7] = target: PLK1 (Okadaic acid) (Homo sapiens (Human), UniProt P53350)
Source text: as §1

[8] = target: MST2 (Homo sapiens (Human), UniProt Q13188)
Source text: as §1

[9] = target: NEK6 (Homo sapiens (Human), UniProt Q9HC98)
Source text: as §1

[10] = target: GSK3b (Homo sapiens (Human), UniProt P49841)
Source text: as §1

[11] = target: MARK3 (Homo sapiens (Human), UniProt P27448)
Source text: as §1

[12] = target: CAMKKa (Homo sapiens (Human), UniProt Q8N5S9)
Source text: as §1

[13] = target: PKD1 (Homo sapiens (Human), UniProt Q15139)
Source text: as §1

[14] = target: SGK1 (Homo sapiens (Human), UniProt O00141)
Source text: as §1

[15] = target: CAMK1 (Homo sapiens (Human), UniProt Q14012)
Source text: as §1

[16] = target: PAK6 (Homo sapiens (Human), UniProt Q9NQU5)
Source text: as §1

[17] = tested on: SmMLCK
Source text: as §1

[18] = target: MSK1 (Homo sapiens (Human), UniProt O75582)
Source text: as §1

[19] = target: CDK2/cyclin A (Homo sapiens (Human), UniProt P24941)
Source text: as §1

[20] = target: CHK2 (Homo sapiens (Human), UniProt O96017)
Source text: as §1

[21] = target: MAPKAP-K2 (Homo sapiens (Human), UniProt P49137)
Source text: as §1

[22] = target: IKKb (Homo sapiens (Human), UniProt O14920)
Source text: as §1

[23] = target: Aurora C (Homo sapiens (Human), UniProt Q9UQB9)
Source text: as §1

[24] = target: S6K1 (Homo sapiens (Human), UniProt P23443)
Source text: as §1

[25] = target: JNK2 (Homo sapiens (Human), UniProt P45984)
Source text: as §1

[26] = target: PLK1 (Homo sapiens (Human), UniProt P53350)
Source text: as §1

[27] = target: p38s MAPK (Homo sapiens (Human), UniProt O15264)
Source text: as §1

[28] = target: PRK2 (Homo sapiens (Human), UniProt Q16513)
Source text: as §1

[29] = target: PAK5 (Homo sapiens (Human), UniProt Q9P286)
Source text: as §1

[30] = tested on: AMPK
Source text: as §1

[31] = target: SRPK1 (Homo sapiens (Human), UniProt Q96SB4)
Source text: as §1

[32] = target: CAMKKb (Homo sapiens (Human), UniProt Q96RR4)
Source text: as §1

[33] = target: CHK1 (Homo sapiens (Human), UniProt O14757)
Source text: as §1

[34] = tested on: PHK
Source text: as §1

[35] = target: ERK8 (Homo sapiens (Human), UniProt Q8TD08)
Source text: as §1

[36] = target: CSK (Homo sapiens (Human), UniProt P41240)
Source text: as §1

[37] = target: JNK1 (Homo sapiens (Human), UniProt P45983)
Source text: as §1

[38] = target: ERK1 (Homo sapiens (Human), UniProt P27361)
Source text: as §1

Chain of S6K1 (P23443 whole entry, species assumed): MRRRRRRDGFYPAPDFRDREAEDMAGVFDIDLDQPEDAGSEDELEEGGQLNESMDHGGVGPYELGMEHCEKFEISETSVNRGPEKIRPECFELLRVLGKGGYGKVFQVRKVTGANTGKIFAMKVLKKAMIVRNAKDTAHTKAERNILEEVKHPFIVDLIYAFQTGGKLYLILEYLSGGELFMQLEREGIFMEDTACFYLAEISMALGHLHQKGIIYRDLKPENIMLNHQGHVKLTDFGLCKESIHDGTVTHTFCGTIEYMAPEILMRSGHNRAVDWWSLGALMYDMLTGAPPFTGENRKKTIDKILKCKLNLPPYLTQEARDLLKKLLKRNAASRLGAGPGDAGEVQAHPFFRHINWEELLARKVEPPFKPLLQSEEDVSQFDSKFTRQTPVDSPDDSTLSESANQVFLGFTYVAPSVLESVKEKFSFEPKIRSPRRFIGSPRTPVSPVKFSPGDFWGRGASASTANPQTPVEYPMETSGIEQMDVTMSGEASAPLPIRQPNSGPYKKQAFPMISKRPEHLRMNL
Chain of HIPK3 (Q9H422 whole entry, species assumed): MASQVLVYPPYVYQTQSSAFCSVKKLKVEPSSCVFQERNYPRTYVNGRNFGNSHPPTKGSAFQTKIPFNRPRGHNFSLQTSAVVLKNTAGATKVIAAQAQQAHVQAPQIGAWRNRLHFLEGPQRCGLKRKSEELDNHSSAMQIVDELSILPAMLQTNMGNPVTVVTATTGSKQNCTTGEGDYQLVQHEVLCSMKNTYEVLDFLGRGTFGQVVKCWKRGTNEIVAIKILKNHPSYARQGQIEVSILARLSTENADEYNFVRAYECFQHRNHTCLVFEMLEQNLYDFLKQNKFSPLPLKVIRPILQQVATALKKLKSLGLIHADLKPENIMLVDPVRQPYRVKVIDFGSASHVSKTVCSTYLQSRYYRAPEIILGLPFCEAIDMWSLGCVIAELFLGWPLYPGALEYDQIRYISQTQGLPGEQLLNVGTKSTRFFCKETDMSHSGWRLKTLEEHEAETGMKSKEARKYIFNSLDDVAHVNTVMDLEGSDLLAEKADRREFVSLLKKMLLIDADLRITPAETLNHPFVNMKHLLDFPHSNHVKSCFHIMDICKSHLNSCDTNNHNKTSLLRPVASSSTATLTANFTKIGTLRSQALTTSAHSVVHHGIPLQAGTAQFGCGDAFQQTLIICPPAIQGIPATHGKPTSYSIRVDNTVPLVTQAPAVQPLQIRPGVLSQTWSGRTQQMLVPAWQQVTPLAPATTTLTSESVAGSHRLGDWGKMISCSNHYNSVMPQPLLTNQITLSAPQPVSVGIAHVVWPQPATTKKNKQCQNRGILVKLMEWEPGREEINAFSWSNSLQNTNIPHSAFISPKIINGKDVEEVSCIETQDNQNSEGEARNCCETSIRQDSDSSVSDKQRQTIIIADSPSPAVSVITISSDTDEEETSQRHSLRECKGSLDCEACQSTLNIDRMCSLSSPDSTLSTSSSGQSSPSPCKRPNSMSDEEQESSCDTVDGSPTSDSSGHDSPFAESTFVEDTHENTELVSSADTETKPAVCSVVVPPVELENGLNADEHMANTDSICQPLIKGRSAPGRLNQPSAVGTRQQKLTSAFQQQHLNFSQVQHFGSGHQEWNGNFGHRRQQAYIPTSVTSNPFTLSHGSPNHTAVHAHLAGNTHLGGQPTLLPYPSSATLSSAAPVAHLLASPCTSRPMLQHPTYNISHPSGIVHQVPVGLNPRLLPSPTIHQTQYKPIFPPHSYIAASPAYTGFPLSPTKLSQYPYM
Chain of Src (P12931 whole entry, looked up, species assumed): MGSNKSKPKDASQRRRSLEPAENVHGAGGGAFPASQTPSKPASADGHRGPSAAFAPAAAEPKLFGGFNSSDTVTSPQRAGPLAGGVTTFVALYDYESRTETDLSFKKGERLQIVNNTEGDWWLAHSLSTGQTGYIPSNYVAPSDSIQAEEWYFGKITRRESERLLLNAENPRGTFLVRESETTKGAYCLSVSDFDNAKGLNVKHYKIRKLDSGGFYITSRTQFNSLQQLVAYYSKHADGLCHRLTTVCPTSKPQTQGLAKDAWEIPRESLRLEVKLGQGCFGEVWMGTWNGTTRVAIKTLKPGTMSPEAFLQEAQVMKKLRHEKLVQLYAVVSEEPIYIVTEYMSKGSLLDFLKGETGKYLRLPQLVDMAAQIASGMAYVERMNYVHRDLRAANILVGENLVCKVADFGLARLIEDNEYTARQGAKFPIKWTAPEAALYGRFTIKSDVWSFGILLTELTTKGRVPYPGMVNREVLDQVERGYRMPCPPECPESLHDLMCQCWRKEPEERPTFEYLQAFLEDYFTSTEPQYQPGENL
Chain of CHK1 (O14757 whole entry, species assumed): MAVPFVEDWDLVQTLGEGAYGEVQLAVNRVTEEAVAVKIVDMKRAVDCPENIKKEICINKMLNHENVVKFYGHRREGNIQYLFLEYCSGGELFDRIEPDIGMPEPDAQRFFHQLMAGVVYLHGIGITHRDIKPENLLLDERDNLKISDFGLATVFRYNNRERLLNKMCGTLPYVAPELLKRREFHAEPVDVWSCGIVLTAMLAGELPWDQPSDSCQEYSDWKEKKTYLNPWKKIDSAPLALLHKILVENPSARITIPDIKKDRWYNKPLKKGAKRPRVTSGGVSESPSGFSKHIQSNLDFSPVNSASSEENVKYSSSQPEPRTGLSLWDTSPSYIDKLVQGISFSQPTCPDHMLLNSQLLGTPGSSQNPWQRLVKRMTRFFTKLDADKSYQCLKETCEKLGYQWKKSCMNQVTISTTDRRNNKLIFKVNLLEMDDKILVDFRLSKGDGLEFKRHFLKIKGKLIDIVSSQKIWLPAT
Chain of p38a MAPK (Q16539 whole entry): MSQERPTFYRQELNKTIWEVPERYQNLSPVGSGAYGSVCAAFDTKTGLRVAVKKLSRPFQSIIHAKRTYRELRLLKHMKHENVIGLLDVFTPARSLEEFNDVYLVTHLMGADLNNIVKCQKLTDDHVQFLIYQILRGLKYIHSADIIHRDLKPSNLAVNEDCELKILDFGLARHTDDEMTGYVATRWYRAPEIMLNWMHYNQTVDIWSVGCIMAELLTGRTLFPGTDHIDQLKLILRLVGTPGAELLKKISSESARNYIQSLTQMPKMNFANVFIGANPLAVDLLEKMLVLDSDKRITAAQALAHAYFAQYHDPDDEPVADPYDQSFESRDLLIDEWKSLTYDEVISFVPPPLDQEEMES
Chain of Aurora B (Q96GD4 whole entry): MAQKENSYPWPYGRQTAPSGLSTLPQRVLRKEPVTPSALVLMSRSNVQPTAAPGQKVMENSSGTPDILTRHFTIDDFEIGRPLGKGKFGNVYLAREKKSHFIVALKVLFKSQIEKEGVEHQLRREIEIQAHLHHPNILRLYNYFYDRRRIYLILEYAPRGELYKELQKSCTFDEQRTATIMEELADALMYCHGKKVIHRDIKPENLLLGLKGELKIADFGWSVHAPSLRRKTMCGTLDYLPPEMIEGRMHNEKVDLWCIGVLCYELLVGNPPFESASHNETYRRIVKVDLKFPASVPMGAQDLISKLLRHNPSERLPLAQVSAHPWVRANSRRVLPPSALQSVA
Chain of PAK5 (Q9P286 whole entry): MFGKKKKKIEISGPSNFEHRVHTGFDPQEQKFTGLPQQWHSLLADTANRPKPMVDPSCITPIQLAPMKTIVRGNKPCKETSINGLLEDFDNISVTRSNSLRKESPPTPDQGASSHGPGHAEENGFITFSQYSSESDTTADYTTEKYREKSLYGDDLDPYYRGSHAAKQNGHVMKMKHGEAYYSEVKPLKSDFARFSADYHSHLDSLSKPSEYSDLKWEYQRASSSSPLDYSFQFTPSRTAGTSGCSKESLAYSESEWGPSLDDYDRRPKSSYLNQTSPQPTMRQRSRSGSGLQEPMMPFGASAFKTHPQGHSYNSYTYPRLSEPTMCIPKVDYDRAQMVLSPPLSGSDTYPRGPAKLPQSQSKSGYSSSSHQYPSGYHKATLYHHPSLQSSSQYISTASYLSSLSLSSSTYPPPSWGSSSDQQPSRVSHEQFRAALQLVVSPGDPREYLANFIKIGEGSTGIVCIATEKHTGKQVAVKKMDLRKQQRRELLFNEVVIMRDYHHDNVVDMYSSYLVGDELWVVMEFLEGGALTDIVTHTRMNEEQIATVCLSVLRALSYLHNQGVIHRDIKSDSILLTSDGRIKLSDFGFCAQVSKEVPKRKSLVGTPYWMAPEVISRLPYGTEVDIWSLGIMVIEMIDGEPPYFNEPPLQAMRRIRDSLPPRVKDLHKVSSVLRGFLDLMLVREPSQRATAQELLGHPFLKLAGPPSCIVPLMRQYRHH
Chain of GSK3b (P49841 whole entry, species assumed): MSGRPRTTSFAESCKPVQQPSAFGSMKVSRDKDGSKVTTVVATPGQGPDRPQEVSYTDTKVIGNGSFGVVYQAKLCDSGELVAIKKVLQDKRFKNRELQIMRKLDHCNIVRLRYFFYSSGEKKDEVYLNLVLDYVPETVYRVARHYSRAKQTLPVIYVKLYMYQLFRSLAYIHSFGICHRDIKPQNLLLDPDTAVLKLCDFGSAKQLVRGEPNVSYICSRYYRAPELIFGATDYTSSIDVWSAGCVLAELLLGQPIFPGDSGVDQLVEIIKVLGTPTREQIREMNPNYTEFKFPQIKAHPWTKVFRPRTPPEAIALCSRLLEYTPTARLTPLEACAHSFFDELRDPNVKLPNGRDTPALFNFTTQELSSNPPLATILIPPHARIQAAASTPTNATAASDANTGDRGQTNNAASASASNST
Chain of p38s MAPK (O15264 whole entry): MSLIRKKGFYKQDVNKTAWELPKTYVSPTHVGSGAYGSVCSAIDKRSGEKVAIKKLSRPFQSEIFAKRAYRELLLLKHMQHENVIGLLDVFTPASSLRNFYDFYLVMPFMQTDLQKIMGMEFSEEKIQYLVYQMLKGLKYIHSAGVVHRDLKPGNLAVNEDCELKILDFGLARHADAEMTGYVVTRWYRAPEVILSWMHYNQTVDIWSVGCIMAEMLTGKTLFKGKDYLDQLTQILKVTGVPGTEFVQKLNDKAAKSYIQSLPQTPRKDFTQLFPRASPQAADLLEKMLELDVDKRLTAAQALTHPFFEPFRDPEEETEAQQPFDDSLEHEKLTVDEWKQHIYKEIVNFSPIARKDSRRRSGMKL

NC(=O)c1c[nH]c2c1ccc1c3ccccc3[nH]c12 [Example 5, 1,10-dihydropyrrolo[2,3-a]carbazole-3-carboxamide]
remaining activity at 10 µM [1]: 87% | remaining activity at 10 µM [2]: 75% | remaining activity at 10 µM [3]: 19% | remaining activity at 10 µM [4]: 65% | remaining activity at 10 µM [5]: 96% | remaining activity at 10 µM [6]: 96% | remaining activity at 10 µM [7]: 79% | remaining activity at 10 µM [8]: 76% | remaining activity at 10 µM [9]: 83% | remaining activity at 10 µM [10]: 91% | remaining activity at 10 µM [11]: 73% | remaining activity at 10 µM [12]: 75% | remaining activity at 10 µM [13]: 19% | remaining activity at 10 µM [14]: 71% | remaining activity at 10 µM [15]: 80% | remaining activity at 10 µM [16]: 83% | % residual activity SmMLCK [17]: 69% | remaining activity at 10 µM [18]: 91% | remaining activity at 10 µM [19]: 53% | remaining activity at 10 µM [20]: 44% | remaining activity at 10 µM [21]: 92% | remaining activity at 10 µM [22]: 80% | remaining activity at 10 µM [23]: 61% | remaining activity at 10 µM [24]: 72% | remaining activity at 10 µM [25]: 115% | remaining activity at 10 µM [26]: 100% | remaining activity at 10 µM [27]: 76% | remaining activity at 10 µM [28]: 54% | remaining activity at 10 µM [29]: 70% | % residual activity AMPK [30]: 85% | remaining activity at 10 µM [31]: 93% | remaining activity at 10 µM [32]: 79% | remaining activity at 10 µM [33]: 113% | % residual activity PHK [34]: 43% | remaining activity at 10 µM [35]: 46% | remaining activity at 10 µM [36]: 65% | remaining activity at 10 µM [37]: 106% | remaining activity at 10 µM [38]: 71%

c1ccc2c(c1)[nH]c1c2ccc2cc[nH]c21 [Example 2, 1,10-dihydropyrrolo[2,3-a]carbazole]
remaining activity at 10 µM [1]: 97% | remaining activity at 10 µM [2]: 89% | remaining activity at 10 µM [3]: 69% | remaining activity at 10 µM [4]: 67% | remaining activity at 10 µM [5]: 108% | remaining activity at 10 µM [6]: 98% | remaining activity at 10 µM [7]: 103% | remaining activity at 10 µM [8]: 82% | remaining activity at 10 µM [9]: 90% | remaining activity at 10 µM [10]: 111% | remaining activity at 10 µM [11]: 116% | remaining activity at 10 µM [12]: 76% | remaining activity at 10 µM [13]: 83% | remaining activity at 10 µM [14]: 82% | remaining activity at 10 µM [15]: 29% | remaining activity at 10 µM [16]: 92% | % residual activity SmMLCK [17]: 86% | remaining activity at 10 µM [18]: 90% | remaining activity at 10 µM [19]: 97% | remaining activity at 10 µM [20]: 58% | remaining activity at 10 µM [21]: 118% | remaining activity at 10 µM [22]: 106% | remaining activity at 10 µM [23]: 85% | remaining activity at 10 µM [24]: 89% | remaining activity at 10 µM [25]: 118% | remaining activity at 10 µM [26]: 111% | remaining activity at 10 µM [27]: 78% | remaining activity at 10 µM [28]: 95% | remaining activity at 10 µM [29]: 82% | % residual activity AMPK [30]: 80% | remaining activity at 10 µM [31]: 90% | remaining activity at 10 µM [32]: 93% | remaining activity at 10 µM [33]: 123% | % residual activity PHK [34]: 90% | remaining activity at 10 µM [35]: 55% | remaining activity at 10 µM [36]: 98% | remaining activity at 10 µM [37]: 102% | remaining activity at 10 µM [38]: 108%

O=Cc1c[nH]c2c1ccc1c3ccccc3[nH]c12 [Example 3, 1,10-dihydropyrrolo[2,3-a]carbazole-3-carbaldehyde]
remaining activity at 10 µM [1]: 64% | remaining activity at 10 µM [2]: 69% | remaining activity at 10 µM [3]: 27% | remaining activity at 10 µM [4]: 68% | remaining activity at 10 µM [5]: 102% | remaining activity at 10 µM [6]: 85% | remaining activity at 10 µM [7]: 83% | remaining activity at 10 µM [8]: 63% | remaining activity at 10 µM [9]: 78% | remaining activity at 10 µM [10]: 88% | remaining activity at 10 µM [11]: 88% | remaining activity at 10 µM [12]: 42% | remaining activity at 10 µM [13]: 28% | remaining activity at 10 µM [14]: 64% | remaining activity at 10 µM [15]: 71% | remaining activity at 10 µM [16]: 94% | % residual activity SmMLCK [17]: 60% | remaining activity at 10 µM [18]: 71% | remaining activity at 10 µM [19]: 74% | remaining activity at 10 µM [20]: 38% | remaining activity at 10 µM [21]: 84% | remaining activity at 10 µM [22]: 71% | remaining activity at 10 µM [23]: 79% | remaining activity at 10 µM [24]: 38% | remaining activity at 10 µM [25]: 128% | remaining activity at 10 µM [26]: 91% | remaining activity at 10 µM [27]: 92% | remaining activity at 10 µM [28]: 31% | remaining activity at 10 µM [29]: 87% | % residual activity AMPK [30]: 59% | remaining activity at 10 µM [31]: 84% | remaining activity at 10 µM [32]: 56% | remaining activity at 10 µM [33]: 97% | % residual activity PHK [34]: 33% | remaining activity at 10 µM [35]: 20% | remaining activity at 10 µM [36]: 74% | remaining activity at 10 µM [37]: 102% | remaining activity at 10 µM [38]: 87%
